ChEMBL document CHEMBL1142009, “Efficient synthesis of bicyclic oxazolino- and thiazolino[3,2-c]pyrimidine-5,7-diones and its application to the synthesis of GnRH antagonists” (Bioorg Med Chem Lett, 2005)

target: T1, Gonadotropin-releasing hormone receptor (Homo sapiens, UniProt P30968); experiment: Binding affinity was determined against human gonadotropin-releasing hormone receptor
T1 sequence (P30968 whole entry): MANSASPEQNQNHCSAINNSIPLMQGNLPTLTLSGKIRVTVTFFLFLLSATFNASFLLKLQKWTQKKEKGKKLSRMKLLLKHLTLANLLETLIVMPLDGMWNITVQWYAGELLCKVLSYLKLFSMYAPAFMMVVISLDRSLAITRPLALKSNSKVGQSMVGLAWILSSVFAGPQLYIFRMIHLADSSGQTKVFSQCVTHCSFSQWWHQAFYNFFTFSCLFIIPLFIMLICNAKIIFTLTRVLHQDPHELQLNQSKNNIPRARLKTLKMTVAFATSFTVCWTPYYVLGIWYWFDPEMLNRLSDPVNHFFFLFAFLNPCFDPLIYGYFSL

SMILES | Ki
COc1cccc(-c2c3n(c(=O)n(CC(N)c4ccccc4)c2=O)C(c2ccccc2F)CS3)c1Cl (stereo not given) | 4.5 nM
COc1cccc(-c2c3n(c(=O)n(CC(N)c4ccccc4)c2=O)C(c2ccccc2)CO3)c1 (stereo not given) | 870 nM
COc1cccc(-c2c3n(c(=O)n(CCNCc4ccccc4)c2=O)[C@@H](c2ccccc2)CO3)c1F | 460 nM
N[C@@H](Cn1c(=O)c(-c2ccccc2F)c2n(c1=O)C(c1ccccc1)CS2)c1ccccc1 (stereo not given in full) | 110 nM
NC(Cn1c(=O)c(-c2ccccc2F)c2n(c1=O)C(c1ccccc1F)CS2)c1ccccc1 (stereo not given) | 220 nM
COc1cccc(-c2c3n(c(=O)n(CC(N)c4ccccc4)c2=O)C(c2ccccc2F)CS3)c1F (stereo not given) | 40 nM
NC(Cn1c(=O)c(-c2ccccc2F)c2n(c1=O)C(c1ccccc1)CO2)c1ccccc1 (stereo not given) | 700 nM
COc1cccc(-c2c3n(c(=O)n(CC(N)c4ccccc4)c2=O)C(c2ccccc2)CO3)c1F (stereo not given) | 125 nM
NC(Cn1c(=O)c(-c2ccccc2Cl)c2n(c1=O)C(c1ccccc1F)CS2)c1ccccc1 (stereo not given) | 93 nM
NC(Cn1c(=O)c(-c2ccccc2F)c2n(c1=O)C(c1ccccc1F)CO2)c1ccccc1 (stereo not given) | 230 nM
